Assay results reported in PubChem BioAssay AID248 (DTP/NCI, 2004).
Several values for one entry are separate records, joined by “and”; a condition that tells them apart may be missing. Equal values may be shown once. Inconclusive results and toxic doses are left out. Cut-off read from the data, not from the text of the source: active = T/C of 150% or more; inactive = T/C below 125%.

Test system: L1210 leukemia ip in BDF1 mice, survival T/C
Test: NCI In Vivo Anticancer Drug Screen. Data for tumor model L1210 Leukemia (intraperitoneal) in B6D2F1 (BDF1) mice
Conditions: endpoint: mean survival time, higher = longer survival
Procedure, shortened: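 Tumor cells were implanted, animals were treated, and survival was followed. The result divides the treated measurement by the vehicle-control measurement.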

[1] = dose: 50.0 mg/kg/injection, schedule: Q01DX001 (ip), vehicle: carboxymethylcellulose (CMC)
[2] = dose: 100.0 mg/kg/injection, schedule: Q01DX001 (ip), vehicle: carboxymethylcellulose (CMC)
[3] = dose: 75.0 mg/kg/injection, schedule: Q01DX001 (ip), vehicle: saline
[4] = dose: 150.0 mg/kg/injection, schedule: Q01DX001 (ip), vehicle: saline
[5] = dose: 100.0 mg/kg/injection, schedule: Q01DX001 (ip), vehicle: Klucel (hydroxypropylcellulose) (HPC)
[6] = dose: 100.0 mg/kg/injection, schedule: Q01DX009 (ip), vehicle: Klucel (hydroxypropylcellulose) (HPC)
[7] = dose: 200.0 mg/kg/injection, schedule: Q01DX001 (ip), vehicle: Klucel (hydroxypropylcellulose) (HPC)
[8] = dose: 200.0 mg/kg/injection, schedule: Q01DX009 (ip), vehicle: Klucel (hydroxypropylcellulose) (HPC)
[9] = dose: 400.0 mg/kg/injection, schedule: Q01DX001 (ip), vehicle: Klucel (hydroxypropylcellulose) (HPC)
[10] = dose: 400.0 mg/kg/injection, schedule: Q01DX009 (ip), vehicle: Klucel (hydroxypropylcellulose) (HPC)
[11] = dose: 50.0 mg/kg/injection, schedule: Q01DX001 (ip), vehicle: saline
[12] = dose: 100.0 mg/kg/injection, schedule: Q01DX001 (ip), vehicle: saline
[13] = dose: 100.0 mg/kg/injection, schedule: Q04DX003 (ip), vehicle: Klucel (hydroxypropylcellulose) (HPC)
[14] = dose: 100.0 mg/kg/injection, schedule: Q04DX003 (ip), vehicle: saline with Tween-80
[15] = dose: 200.0 mg/kg/injection, schedule: Q04DX003 (ip), vehicle: Klucel (hydroxypropylcellulose) (HPC)
[16] = dose: 200.0 mg/kg/injection, schedule: Q04DX003 (ip), vehicle: saline with Tween-80
[17] = dose: 400.0 mg/kg/injection, schedule: Q04DX003 (ip), vehicle: Klucel (hydroxypropylcellulose) (HPC)
[18] = dose: 400.0 mg/kg/injection, schedule: Q04DX003 (ip), vehicle: saline with Tween-80
[19] = dose: 100.0 mg/kg/injection, schedule: Q04DX003 (ip), vehicle: saline
[20] = dose: 200.0 mg/kg/injection, schedule: Q01DX001 (ip), vehicle: carboxymethylcellulose (CMC)
[21] = dose: 400.0 mg/kg/injection, schedule: Q01DX001 (ip), vehicle: carboxymethylcellulose (CMC)

Measured: T/C

Cc1ccc(NC(=O)N(CCO)N=O)cc1
inactive: dose: 12.5 mg/kg/injection, schedule: Q01DX001 (ip), vehicle: carboxymethylcellulose (CMC) 110 % of control | dose: 25.0 mg/kg/injection, schedule: Q01DX001 (ip), vehicle: carboxymethylcellulose (CMC) 105 % of control | [1] 103 % of control and 108 % of control | [2] 100 % of control

CCCCOC(=O)c1ccc2c(ccc[n+]2C)c1
inactive: [3] 95 % of control | dose: 75.0 mg/kg/injection, schedule: Q04DX003 (ip), vehicle: saline 112 % of control | [4] 101 % of control | dose: 150.0 mg/kg/injection, schedule: Q04DX003 (ip), vehicle: saline 105 % of control | dose: 300.0 mg/kg/injection, schedule: Q01DX001 (ip), vehicle: saline 100 % of control | dose: 300.0 mg/kg/injection, schedule: Q04DX003 (ip), vehicle: saline 96 % of control

CC(=O)OC1CCC2(C)C(=CCC3C2CCC2(C)C3CC3C(c4ccccc4C)=NN(c4ccccc4)C32C#N)C1 (centres undefined)
inactive: dose: 12.5 mg/kg/injection, schedule: Q04DX002 (ip), vehicle: Klucel (hydroxypropylcellulose) (HPC) 102 % of control | dose: 25.0 mg/kg/injection, schedule: Q04DX002 (ip), vehicle: Klucel (hydroxypropylcellulose) (HPC) 97 % of control | dose: 50.0 mg/kg/injection, schedule: Q04DX002 (ip), vehicle: Klucel (hydroxypropylcellulose) (HPC) 97 % of control

BrC1CCC(Br)C(Br)CCC1Br (centres undefined)
inactive: [5] 101 % of control | [6] 104 % of control | [7] 97 % of control | [8] 97 % of control | [9] 95 % of control | [10] 90 % of control

O=C(O)c1cc2ccccc2c2cc(C(F)(F)F)ccc12
inactive: [3] 92 % of control | [4] 97 % of control

COc1ccc(NC(=O)Nc2cc([N+](=O)[O-])ccc2C)cc1[N+](=O)[O-]
inactive: [6] 98 % of control | [8] 96 % of control | [10] 104 % of control

CC(=O)N(N=O)c1ccc([N+](=O)[O-])cc1Cl
inactive: [11] 102 % of control | [12] 102 % of control | dose: 200.0 mg/kg/injection, schedule: Q01DX001 (ip), vehicle: saline 100 % of control | dose: 400.0 mg/kg/injection, schedule: Q01DX001 (ip), vehicle: saline 102 % of control

c1ccc(-c2nc3ccccc3nc2-c2ccccc2)cc1
inactive: [13] 96 % of control | [14] 100 % of control | [15] 86 % of control | [16] 100 % of control | [17] 90 % of control | [18] 100 % of control

CN(C)CCN=C(Nc1ccccn1)Nc1ccccn1
inactive: dose: 12.5 mg/kg/injection, schedule: Q01DX001 (ip), vehicle: saline 113 % of control | dose: 25.0 mg/kg/injection, schedule: Q01DX001 (ip), vehicle: saline 104 % of control | dose: 25.0 mg/kg/injection, schedule: Q01DX009 (ip), vehicle: saline 110 % of control | dose: 25.0 mg/kg/injection, schedule: Q04DX003 (ip), vehicle: saline 100 % of control | [11] 113 % of control | dose: 50.0 mg/kg/injection, schedule: Q01DX009 (ip), vehicle: saline 100 % of control | dose: 50.0 mg/kg/injection, schedule: Q04DX003 (ip), vehicle: saline 95 % of control | [12] 97 % of control | dose: 100.0 mg/kg/injection, schedule: Q01DX009 (ip), vehicle: saline 97 % of control | [19] 113 % of control

O/N=C1/CCCC/C1=C/c1ccccc1Cl
inactive: [14] 92 % of control | [16] 100 % of control | [18] 100 % of control

Cc1cccn2c(=O)c(/C=N\NC(N)=S)c(Cl)nc12
inactive: [2] 105 % of control | [20] 96 % of control | [21] 94 % of control

CCOC(=O)Nc1cc(Cl)ccc1C
inactive: [5] 101 % of control | [6] 102 % of control | dose: 100.0 mg/kg/injection, schedule: Q04DX002 (ip), vehicle: Klucel (hydroxypropylcellulose) (HPC) 97 % of control and 100 % of control | [13] 103 % of control | [7] 102 % of control | [8] 102 % of control | dose: 200.0 mg/kg/injection, schedule: Q04DX002 (ip), vehicle: Klucel (hydroxypropylcellulose) (HPC) 100 % of control and 104 % of control | [15] 107 % of control | [9] 111 % of control | [10] 96 % of control | dose: 400.0 mg/kg/injection, schedule: Q04DX002 (ip), vehicle: Klucel (hydroxypropylcellulose) (HPC) 103 % of control and 110 % of control | [17] 96 % of control

CS(=O)(=O)OCCN(CCOS(C)(=O)=O)c1ccc(C=Nc2cc(Br)c(O)c(Br)c2)c(Cl)c1
inactive: [13] 98 % of control | [15] 98 % of control | [17] 97 % of control

CC(=Nc1ccccc1)C1=C(O)C(Cc2ccccc2)NC1=O (centres undefined)
inactive: [1] 101 % of control | [2] 103 % of control | dose: 178.0 mg/kg/injection, schedule: Q01DX001 (ip), vehicle: carboxymethylcellulose (CMC) 101 % of control and 102 % of control | [20] 120 % of control | dose: 267.0 mg/kg/injection, schedule: Q01DX001 (ip), vehicle: carboxymethylcellulose (CMC) 101 % of control and 109 % of control | [21] 101 % of control and 117 % of control

Cc1ccc(S(=O)(=O)OCCN(CCOS(=O)(=O)c2ccc(C)cc2)c2cc(OCc3ccccc3)cc(OCc3ccccc3)c2)cc1
inactive: dose: 25.0 mg/kg/injection, schedule: Q01DX009 (ip), vehicle: water 100 % of control | dose: 50.0 mg/kg/injection, schedule: Q01DX009 (ip), vehicle: water 121 % of control | dose: 100.0 mg/kg/injection, schedule: Q01DX009 (ip), vehicle: water 89 % of control | dose: 400.0 mg/kg/injection, schedule: Q01DX009 (ip), vehicle: water 95 % of control

CC12CCC3C(CCC4CC(O)CCC43C)C1CCCC2=O (centres undefined)
inactive: dose: 75.0 mg/kg/injection, schedule: Q04DX003 (sc), vehicle: steriod suspending solution 102 % of control | dose: 150.0 mg/kg/injection, schedule: Q04DX003 (sc), vehicle: steriod suspending solution 93 % of control | dose: 300.0 mg/kg/injection, schedule: Q04DX003 (sc), vehicle: steriod suspending solution 91 % of control

CCOC(=O)CC(C(=O)OCC)C(OCC)OCC (centres undefined)
inactive: [19] 104 % of control | dose: 200.0 mg/kg/injection, schedule: Q04DX003 (ip), vehicle: saline 106 % of control | dose: 400.0 mg/kg/injection, schedule: Q04DX003 (ip), vehicle: saline 111 % of control

Cn1c(N)c(N=Nc2ccc(S(=O)(=O)Nc3ncccn3)cc2)c(=O)n(C)c1=O
inactive: [2] 98 % of control | [20] 98 % of control | [21] 95 % of control
